Measured values published in patent EP2386565A2, “Compounds and methods to inhibit or augment an inflammatory response” (Cambridge Enterprise Ltd., priority 1999, dated 2000).
Positions of bridges follow the written chain, without caps; N, C: chain ends. Non-standard residues stand in square brackets, D forms with d. Residues, ends and D or L forms follow the SMILES beside them.

Experiments:
[1] = test system: MCP-1 binding to heparin-coated agarose beads; assay: Competition with 125I-MCP-1 for heparin-coated agarose beads; settings: 10^-11 to 10^-4 M
Text: Chemokines bind to glycosaminoglycans on the cell surface, which may facilitate chemokine receptor binding and subsequent signaling. […] This was followed by a monophasic displacement curve at concentrations of approximately 10^-7 to 10^-5 M MCP-1.

trypsin = assay: Stability against enzymatic destruction; assay type: in vitro ADME; settings: 5 units trypsin for 2 hrs at 37°C
Text: For example, to prepare a peptide 3 derivative, peptide 3(3-12)[MCP-1] was modified according to Jameson et al. (Nature, 368, 744 (1994)), which yielded CRD-Cys13Leu4Ile11peptide 3(3-12)[MCP-1] (Figure 3).

LPS-induced serum TNF-α = assay: Endotoxemia model (LPS i.p.); assay type: in vivo, mice
Method: A mouse endotoxemia model is used to screen agents of the invention for in vivo functional anti-inflammatory activity in a rapid manner. Female CD-1 mice are injected i.p. (ventral abdomen) with 583 µg LPS. mRNA and protein levels of TNF-α, IFN-γ, IL-4 and MCP-1 and other markers of the inflammatory response are then determined. Thirty minutes prior to LPS administration, the animals were administered one of three different doses of CRD-Leu4Ile11Cys13peptide 3(3-12)[MCP-1] as an intravenous loading dose and a subcutaneous bolus dose (on dorsum). PBS treated animals with and without LPS administration were positive and negative controls. Two hours later, animals were euthanized and serum collected. Serum was separated from the cell pellet and frozen until ELISA analysis of cytokine levels. Lung and liver samples were collected for mRNA analyses and histopathology. […] Serum levels and mRNA levels of IL-4, IFN-γ and MCP-1 are also determined.
Each animal received a pretreatment (200 ul) by sub-cutaneous injection into the scruff at the back of the neck. All pre-treatment agents were administered at 1 mg per animal (approximately 40-50 mg/kg). After 30-45 minutes, animals in groups 2 through 6 received 750 µg bacterial lipopolysaccharide (LPS) in 300 µl PBS by intraperitoneal injection. Animals in group 1 received PBS vehicle alone.
After 3 hours (2 hours post-LPS), all animals were sacrificed by terminal anaesthesia followed by cardiac puncture. Approximately 1 ml of blood was withdrawn and serum was prepared. Blood was allowed to clot at room temperature for approximately 2 hours, then the clot was spun out and the serum aliquoted and stored at -20°C until tested. Serum from each animal was assayed in duplicate for TNF-α using the Quantikine M kit (R&D Systems) calibrated by interpolation of the standard curve.

[2] = test system: SDF-1α induced human monocyte migration; assay: Migration of freshly prepared peripheral blood monocytes, SDF-1α; assay type: cell-based
Method: Agents may also be screened in a chemotactic assay which employs human neutrophils, eosinophils, mast cells, basophils, platelets, lymphocytes or monocytes. For monocytes, 9 mls of fresh blood are transferred to a tube containing 1 ml of 3.8% sodium citrate, and left at room temperature for 15 minutes. Five mls of this anti-coagulated blood are carefully layered over 3.5 ml Polymorphprep® (Nycomed Pharma, Oslo), and centrifuged at 500 g for 35 minutes per the manufacturer's instructions. The top band at the sample/medium interface contains monocytes. The monocytes are carefully removed with a glass pipette, and reconstituted to the original volume (5 ml). The cells are washed with PBS plus 10% fetal calf serum, and centrifuged at 400 g for 10 minutes. The washing step is repeated three times before the cells are counted. Cells are resuspended at 1 × 10^7 cells/ml in RPMI-1640 + 10% fetal calf serum (FCS). The monocytes are cultured for two days at 37°C in a humidified atmosphere of 5% CO2-
On day 2, the cells are counted, spun down, and reconstituted to 1 × 10^7 cells/ml in Gey's balanced salt solution + 1 mg/ml bovine serum albumin (BSA). […]

Compound	displacement of MCP-1 from heparin-coated agarose beads (in words) [1]	stability against enzymatic destruction (in words) (trypsin)	serum MCP-1 and liver MCP-1 RNA after LPS (in words) (LPS-induced serum TNF-α; mouse, in vivo)	serum TNF-α after LPS (in words) (LPS-induced serum TNF-α; mouse, in vivo)	serum TNF-α after LPS (in words) (LPS-induced serum TNF-α; mouse, in vivo, listed as CRD-Leu4Ile11Cys13peptide 3(3-12)[MCP-1])	half-maximal dose for inhibition of LPS-stimulated TNF-α (LPS-induced serum TNF-α; s.c.)	% inhibition at 100 µM versus SDF-1α [2]
CC[C@@H](C)[C@H]1NC(=O)[C@@H](CCC(N)=O)NC(=O)[C@H](N)CSSC[C@H](C(N)=O)NC(=O)[C@@H](CC(C)C)NC(=O)[C@@H](CC(=O)O)NC(=O)[C@H]2CCCN2C(=O)[C@@H](CCCCN)NC(=O)[C@@H](CCC(N)=O)NC(=O)[C@@H](CCCCN)NC(=O)[C@@H](Cc2c[nH]c3ccccc23)NC1=O (H-[dC][dQ][dI][dW][dK][dQ][dK][dP][dD][dL][dC]-NH2; disulfide 1-11)	did not result in displacement	stable	no modulation	dose-dependent inhibition	dose dependent decrease	approximately 100 µg per animal	–
CC[C@H](C)[C@H](NC(=O)[C@H](C)NC(=O)[C@H](CC(=O)O)NC(=O)[C@@H]1CCCN1C(=O)[C@H](CCC(N)=O)NC(=O)[C@H](C)N)C(=O)N[C@@H](CC(N)=O)C(=O)N[C@@H](C)C(=O)N1CCC[C@H]1C(=O)N[C@H](C(=O)N[C@H](C(=O)N[C@@H](CS)C(=O)N[C@@H](CS)C(=O)O)[C@@H](C)O)C(C)C [Peptide 1] (H-AQPDAINAPVTCC-OH; N-terminus and C-terminus assumed)	–	–	–	–	–	–	n.s.
